According to patent US20240016938A1, “METHODS FOR INCREASING THE BIOAVAILABILITY OF NUCLEOSIDE MEDICINAL AGENTS” (ZOGENIX MDS, INC., priority 2022, published 2024):
Where two headings read alike, the source gives them in different places.

Assay: Phase 1 open-label, fixed-sequence, single-ascending dose and food-effect PK study of MT1621 in adult healthy subjects
Type: in vivo, human
Protocol: A phase 1 study was conducted as an open-label, fixed-sequence, single-ascending dose study in adult healthy subjects designed to evaluate the safety, tolerability, PK, and food-effect of MT1621 (dC and dT). To evaluate the PK of MT1621, the combination was administered at three different doses. Treatment A was a 43.3 mg/kg dose of MT1621 (i.e., a 43.3 mg/kg dose of dC and a 43.3 mg/kg dose of dT (each approximately equivalent to 1 dose of a 130 mg/kg daily dose, divided 3 times daily [TID])) in healthy male and female subjects under fasting conditions; Treatment B was an 86.7 mg/kg dose of MT1621 (i.e., a 86.7 mg/kg dose of dC and a 86.7 mg/kg dose of dT (each approximately equivalent to 1 dose of a 260 mg/kg daily dose, divided TID)) in healthy male and female subjects under fasting conditions; and Treatment C was a 133.3 mg/kg dose of MT1621 (i.e., a 133.3 mg/kg dose of dC and a 133.3 mg/kg dose of dT (each approximately equivalent to a 400 mg/kg daily dose, divided TID)) in healthy male and female subjects under fasting conditions. Additionally, Treatment D was a 133.3 mg/kg dose of MT1621 (i.e., a 133.3 mg/kg dose of dC and a 133.3 mg/kg dose of dT (each approximately equivalent to a 400 mg/kg daily dose, divided TID) in healthy male and female subjects under fed conditions, to determine the effect of a high-fat meal on the single-dose PK of MT1621.
Methodology of open-label, Phase 1, fixed-sequence, single-dose, dose escalation, and food-effect study. Fourteen (14) healthy, adult, male and female subjects were enrolled with an approximately equal distribution (at least 40% of each sex) between male and female subjects.
On Day 1 of each period, subjects received 1 of 3 dose levels of MT1621 under fasting conditions as escalating single doses over 3 periods in Part A (Treatments A, B, and C in Periods 1, 2, and 3, respectively) and with the highest dose under fed conditions in Part B (Treatment D in Period 4). Four (4) of 14 subjects that completed Part A (Periods 1 to 3) could not complete Part B (Treatment D in Period 4) during the original confinement. These subjects were then to return to the clinical unit and continue the study to complete Part B (Treatment D in Period 4); 2 of the 4 subjects completed Part B.
Each treatment was assessed by blood and urine PK sampling pre-dose and up to 48 hours post-dose for the determination of dC and dT in plasma and urine PK, and possible future analysis of blood for PD biomarkers.
A washout period of at least 2 days without drug between each treatment administration was maintained. Fourteen subjects were enrolled in the study, and 12 subjects completed the study. Data from 14 subjects were included in the PK analysis of Periods 1, 2, and 3 and data from 12 subjects were included in the PK analysis of Period 4.
Study drug administered in Example 1 was 0.5 g dC and 0.5 g dT powders for solution and were reconstituted in juice or water.
After reconstitution in a fixed amount of water or juice, the solution was administered via measured volume to provide the amounts specified in Studies A, B, C, and D.
MT1621 was administered orally at Hour 0 on Day 1, following an overnight fast for Treatments A, B, and C and within 5 minutes of consumption of a standardized high-fat breakfast (which included eggs, bacon, and toast with butter) for Treatment D.
Blood samples for the determination of plasma dC and dT concentrations were collected on Day 1 of each period at pre-dose (0 hour), and at 0.25, 0.5, 1, 1.5, 2, 3, 4, 5, 6, 8, 12, 24, and 48 after study drug administration. In Period 4, blood was collected for the 48-hour PK sample; for Periods 1 through 3, the 48-hour PK sample was collected at the same time as the pre-dose PK sample from the next period so only 1 sample was collected for both PK time points. It should be pointed out that Periods 1-3 used sampling up to 24 hours for PK while Period 4 used the complete 48-hour profile. […]

[1] = 100*(test/reference): 133.3 mg/kg MT1621 fed vs fasted, baseline-adjusted plasma
[2] = Treatment A: single 43.3 mg/kg MT1621, fasted, baseline-adjusted plasma, arithmetic mean ± SD
[3] = Treatment B: single 86.7 mg/kg MT1621, fasted, baseline-adjusted plasma, arithmetic mean ± SD
[4] = Treatment D: single 133.3 mg/kg MT1621, fed (high-fat breakfast), baseline-adjusted plasma, arithmetic mean ± SD

Nc1ccn([C@H]2C[C@H](O)[C@@H](CO)O2)c(=O)n1 [dC, β-D-2′-deoxycytidine]
increase in baseline adjusted AUC, fed compared to fasted (133.3 mg/kg MT1621, plasma): 137%
increase in baseline adjusted Cmax, fed compared to fasted (133.3 mg/kg MT1621, plasma): 79%
AUC0-t GMR (%) [1]: 237.18%
Cmax GMR (%) [1]: 178.88%
AUC%extrap [2]: 11.36 ± 8.5281%
Kel [2]: 0.1280 ± 0.1276 h⁻¹
AUC%extrap [3]: 12.46 ± 13.194%
Kel [3]: 0.2030 ± 0.1938 h⁻¹
AUC%extrap (Treatment C: single 133.3 mg/kg MT1621, fasted, baseline-adjusted plasma, arithmetic mean ± SD): 1.152 ± 1.0948%
AUC%extrap [4]: 3.567 ± 5.0087%
Kel [4]: 0.7971 ± 0.3869 h⁻¹
dose proportionality of Cmax (across the 3 fasted dose levels (Treatments A, B, C), plasma): less than dose-proportional
Vd/F (both sexes, human, oral, Treatment D: single 133.3 mg/kg MT1621, fed (high-fat breakfast), baseline-adjusted plasma, arithmetic mean ± SD, read-out: Vz/F): 1660 ± 1470 L/kg
half-life (both sexes, human, plasma, oral, 43.3 mg/kg, 43.3 mg/kg dose level, read-out: geometric mean elimination half-life (converted)): 2.16 h
half-life (both sexes, human, plasma, oral, 43.3 mg/kg, Treatment A: single 43.3 mg/kg MT1621, fasted, baseline-adjusted plasma, arithmetic mean ± SD, read-out: t½ (converted)): 10.3 ± 8.2 h
AUC(0-inf) (both sexes, human, plasma, oral, 43.3 mg/kg, Treatment A: single 43.3 mg/kg MT1621, fasted, baseline-adjusted plasma, geometric mean (geometric CV %)): 48.4 ng·h/mL
AUC(0-t) (both sexes, human, plasma, oral, 43.3 mg/kg, Treatment A: single 43.3 mg/kg MT1621, fasted, baseline-adjusted plasma, geometric mean (geometric CV %), read-out: AUC0-4): 7.84 ng·h/mL
AUC(0-t) (both sexes, human, plasma, oral, 43.3 mg/kg, Treatment A: single 43.3 mg/kg MT1621, fasted, baseline-adjusted plasma, geometric mean (geometric CV %), read-out: AUC0-6): 9.58 ng·h/mL
AUC(0-t) (both sexes, human, plasma, oral, 43.3 mg/kg, Treatment A: single 43.3 mg/kg MT1621, fasted, baseline-adjusted plasma, geometric mean (geometric CV %), read-out: AUC0-48): 19.6 ng·h/mL
AUC(0-t) (both sexes, human, plasma, oral, 43.3 mg/kg, Treatment A: single 43.3 mg/kg MT1621, fasted, baseline-adjusted plasma, geometric mean (geometric CV %), read-out: AUC0-t): 13.5 ng·h/mL
Cmax (both sexes, human, plasma, oral, 43.3 mg/kg, Treatment A: single 43.3 mg/kg MT1621, fasted, baseline-adjusted plasma, geometric mean (geometric CV %), read-out: Cmax): 3.53 ng/mL
Tmax (both sexes, human, plasma, oral, 43.3 mg/kg, Treatment A: single 43.3 mg/kg MT1621, fasted, baseline-adjusted plasma, median (minimum, maximum), read-out: Tmax): 1.25 h
half-life (both sexes, human, plasma, oral, 86.7 mg/kg, 86.7 mg/kg dose level, read-out: geometric mean elimination half-life (converted)): 1.44 h
half-life (both sexes, human, plasma, oral, 86.7 mg/kg, Treatment B: single 86.7 mg/kg MT1621, fasted, baseline-adjusted plasma, arithmetic mean ± SD, read-out: t½ (converted)): 8.62 ± 8.68 h
AUC(0-inf) (both sexes, human, plasma, oral, 86.7 mg/kg, Treatment B: single 86.7 mg/kg MT1621, fasted, baseline-adjusted plasma, geometric mean (geometric CV %)): 26.6 ng·h/mL
AUC(0-t) (both sexes, human, plasma, oral, 86.7 mg/kg, Treatment B: single 86.7 mg/kg MT1621, fasted, baseline-adjusted plasma, geometric mean (geometric CV %), read-out: AUC0-4): 10.3 ng·h/mL
AUC(0-t) (both sexes, human, plasma, oral, 86.7 mg/kg, Treatment B: single 86.7 mg/kg MT1621, fasted, baseline-adjusted plasma, geometric mean (geometric CV %), read-out: AUC0-6): 12.8 ng·h/mL
AUC(0-t) (both sexes, human, plasma, oral, 86.7 mg/kg, Treatment B: single 86.7 mg/kg MT1621, fasted, baseline-adjusted plasma, geometric mean (geometric CV %), read-out: AUC0-48): 29.4 ng·h/mL
AUC(0-t) (both sexes, human, plasma, oral, 86.7 mg/kg, Treatment B: single 86.7 mg/kg MT1621, fasted, baseline-adjusted plasma, geometric mean (geometric CV %), read-out: AUC0-t): 23.2 ng·h/mL
Cmax (both sexes, human, plasma, oral, 86.7 mg/kg, Treatment B: single 86.7 mg/kg MT1621, fasted, baseline-adjusted plasma, geometric mean (geometric CV %), read-out: Cmax): 4.67 ng/mL
Tmax (both sexes, human, plasma, oral, 86.7 mg/kg, Treatment B: single 86.7 mg/kg MT1621, fasted, baseline-adjusted plasma, median (minimum, maximum), read-out: Tmax): 1.51 h
half-life (both sexes, human, plasma, oral, 133.3 mg/kg, 133.3 mg/kg dose level, read-out: geometric mean elimination half-life (converted)): 3.01 h
AUC(0-t) (both sexes, human, plasma, oral, 133.3 mg/kg, Treatment C, fasted, baseline-adjusted plasma, ANOVA on ln-transformed data, read-out: AUC0-t Geometric LSM, 133.3 mg/kg MT1621, Fasted (Reference)): 30.8 ng·h/mL
Cmax (both sexes, human, plasma, oral, 133.3 mg/kg, Treatment C, fasted, baseline-adjusted plasma, ANOVA on ln-transformed data, read-out: Cmax Geometric LSM, 133.3 mg/kg MT1621, Fasted (Reference)): 7.17 ng/mL
half-life (both sexes, human, plasma, oral, 133.3 mg/kg, Treatment C: single 133.3 mg/kg MT1621, fasted, baseline-adjusted plasma, arithmetic mean ± SD, read-out: t½ (converted)): 2.67 ± 1.98 h
AUC(0-inf) (both sexes, human, plasma, oral, 133.3 mg/kg, Treatment C: single 133.3 mg/kg MT1621, fasted, baseline-adjusted plasma, geometric mean (geometric CV %)): 22.5 ng·h/mL
AUC(0-t) (both sexes, human, plasma, oral, 133.3 mg/kg, Treatment C: single 133.3 mg/kg MT1621, fasted, baseline-adjusted plasma, geometric mean (geometric CV %), read-out: AUC0-4): 17.1 ng·h/mL
AUC(0-t) (both sexes, human, plasma, oral, 133.3 mg/kg, Treatment C: single 133.3 mg/kg MT1621, fasted, baseline-adjusted plasma, geometric mean (geometric CV %), read-out: AUC0-6): 21.1 ng·h/mL
AUC(0-t) (both sexes, human, plasma, oral, 133.3 mg/kg, Treatment C: single 133.3 mg/kg MT1621, fasted, baseline-adjusted plasma, geometric mean (geometric CV %), read-out: AUC0-48): 53.1 ng·h/mL
AUC(0-t) (both sexes, human, plasma, oral, 133.3 mg/kg, Treatment C: single 133.3 mg/kg MT1621, fasted, baseline-adjusted plasma, geometric mean (geometric CV %), read-out: AUC0-t): 30.8 ng·h/mL
Cmax (both sexes, human, plasma, oral, 133.3 mg/kg, Treatment C: single 133.3 mg/kg MT1621, fasted, baseline-adjusted plasma, geometric mean (geometric CV %), read-out: Cmax): 7.17 ng/mL
Tmax (both sexes, human, plasma, oral, 133.3 mg/kg, Treatment C: single 133.3 mg/kg MT1621, fasted, baseline-adjusted plasma, median (minimum, maximum), read-out: Tmax): 1.26 h
AUC(0-t) (both sexes, human, plasma, oral, 133.3 mg/kg, Treatment D, fed, baseline-adjusted plasma, ANOVA on ln-transformed data, read-out: AUC0-t Geometric LSM, 133.3 mg/kg MT1621, Fed (Test)): 73 ng·h/mL
Cmax (both sexes, human, plasma, oral, 133.3 mg/kg, Treatment D, fed, baseline-adjusted plasma, ANOVA on ln-transformed data, read-out: Cmax Geometric LSM, 133.3 mg/kg MT1621, Fed (Test)): 12.8 ng/mL
half-life (both sexes, human, plasma, oral, 133.3 mg/kg, Treatment D: single 133.3 mg/kg MT1621, fed (high-fat breakfast), baseline-adjusted plasma, arithmetic mean ± SD, read-out: t½ (converted)): 0.986 ± 0.478 h
AUC(0-inf) (both sexes, human, plasma, oral, 133.3 mg/kg, Treatment D: single 133.3 mg/kg MT1621, fed (high-fat breakfast), baseline-adjusted plasma, geometric mean (geometric CV %)): 138 ng·h/mL
AUC(0-t) (both sexes, human, plasma, oral, 133.3 mg/kg, Treatment D: single 133.3 mg/kg MT1621, fed (high-fat breakfast), baseline-adjusted plasma, geometric mean (geometric CV %), read-out: AUC0-4): 31.7 ng·h/mL
AUC(0-t) (both sexes, human, plasma, oral, 133.3 mg/kg, Treatment D: single 133.3 mg/kg MT1621, fed (high-fat breakfast), baseline-adjusted plasma, geometric mean (geometric CV %), read-out: AUC0-6): 48.2 ng·h/mL
AUC(0-t) (both sexes, human, plasma, oral, 133.3 mg/kg, Treatment D: single 133.3 mg/kg MT1621, fed (high-fat breakfast), baseline-adjusted plasma, geometric mean (geometric CV %), read-out: AUC0-48): 55.8 ng·h/mL
AUC(0-t) (both sexes, human, plasma, oral, 133.3 mg/kg, Treatment D: single 133.3 mg/kg MT1621, fed (high-fat breakfast), baseline-adjusted plasma, geometric mean (geometric CV %), read-out: AUC0-t): 73 ng·h/mL
Cmax (both sexes, human, plasma, oral, 133.3 mg/kg, Treatment D: single 133.3 mg/kg MT1621, fed (high-fat breakfast), baseline-adjusted plasma, geometric mean (geometric CV %), read-out: Cmax): 12.8 ng/mL
Tmax (both sexes, human, plasma, oral, 133.3 mg/kg, Treatment D: single 133.3 mg/kg MT1621, fed (high-fat breakfast), baseline-adjusted plasma, median (minimum, maximum), read-out: Tmax): 2.02 h
Tmax (both sexes, human, plasma, oral, under fasted conditions, read-out: median Tmax): 1 to 1.25 h
Tmax (both sexes, human, plasma, oral, under fed conditions, read-out: median Tmax): 1 h
plasma exposure compared to endogenous (baseline) concentrations (following MT1621, all 3 dose levels): consistently higher
